One assay has as its target T1, human MAO-B (Homo sapiens, UniProt P27338).
T1 construct: expressed in transfected cells; host or cells: EBNA cells (transient transfection); cell membranes used
T1 sequence (P27338 1-520): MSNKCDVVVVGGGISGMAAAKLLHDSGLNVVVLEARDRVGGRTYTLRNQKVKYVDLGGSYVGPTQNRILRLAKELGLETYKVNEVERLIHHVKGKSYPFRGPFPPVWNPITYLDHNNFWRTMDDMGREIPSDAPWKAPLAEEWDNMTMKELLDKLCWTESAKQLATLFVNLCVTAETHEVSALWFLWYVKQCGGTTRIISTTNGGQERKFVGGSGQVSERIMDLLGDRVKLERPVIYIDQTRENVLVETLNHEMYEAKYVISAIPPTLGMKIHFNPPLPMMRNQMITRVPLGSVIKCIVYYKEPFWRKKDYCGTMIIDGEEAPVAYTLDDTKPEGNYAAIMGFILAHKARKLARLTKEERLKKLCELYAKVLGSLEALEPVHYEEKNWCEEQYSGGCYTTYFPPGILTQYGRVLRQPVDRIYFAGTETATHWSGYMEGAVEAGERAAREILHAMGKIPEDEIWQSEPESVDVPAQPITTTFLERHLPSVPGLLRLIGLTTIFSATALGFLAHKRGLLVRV
Nature of the assay: MAO-B enzymatic activity, spectrophotometric assay (tyramine, Amplex Red). It is filed as biochemical. The settings on record: membranes of EBNA cells transfected with human MAO-B cDNA; 30 min preincubation at 37° C., pH 7.4; substrate tyramine. The method, then:
(§1) The cDNA's encoding human MAO-A and MAO-B were transiently transfected into EBNA cells using the procedure described by Schlaeger and Christensen [Cytotechnology 15:1–13 (1998)]. After transfection, cells were homogenised by means of a Polytron homogenizer in 20 mM Tris HCl buffer, pH 8.0, containing 0.5 mM EGTA and 0.5 mM phenylmethanesulfonyl fluoride. Cell membranes were obtained by centrifugation at 45,000×g and, after two rinsing step with 20 mM Tris HCl buffer, pH 8.0, containing 0.5 mM EGTA, membranes were eventually re-suspended in the above buffer and aliquots stored at −80° C. until use.
(§2) MAO-A and MAO-B enzymatic activity was assayed in 96-well-plates using a spectrophotometric assay adapted from the method described by Zhou and Panchuk-Voloshina [Analytical Biochemistry 253:169–174 (1997)]. Briefly, membrane aliquots were incubated in 0.1 M potassium phosphate buffer, pH 7.4, for 30 min at 37° C. with or without various concentrations of the compounds. After this period, the enzymatic reaction was started by the addition of the MAO substrate tyramine together with 1 U/ml horse-radish peroxidase (Roche Biochemicals) and 80 μM N-acetyl-3,7,-dihydroxyphenoxazine (Amplex Red, Molecular Probes). The samples were further incubated for 30 min at 37° C. in a final volume of 200 μl and absorbance was then determined at a wavelength of 570 nm using a SpectraMax plate reader (Molecular Devices). Background (non-specific) absorbance was determined in the presence of 10 μM clorgyline for MAO-A or 10 μM L-deprenyl for MAO-B.
(§3) IC50 values were determined from inhibition curves obtained using nine inhibitor concentrations in duplicate, by fitting data to a four parameter logistic equation using a computer program.

The target of the next assay is T2, human MAO-A (Homo sapiens, UniProt P21397).
T2 construct: expressed in transfected cells; host or cells: EBNA cells (transient transfection); cell membranes used
T2 sequence (P21397 1-527): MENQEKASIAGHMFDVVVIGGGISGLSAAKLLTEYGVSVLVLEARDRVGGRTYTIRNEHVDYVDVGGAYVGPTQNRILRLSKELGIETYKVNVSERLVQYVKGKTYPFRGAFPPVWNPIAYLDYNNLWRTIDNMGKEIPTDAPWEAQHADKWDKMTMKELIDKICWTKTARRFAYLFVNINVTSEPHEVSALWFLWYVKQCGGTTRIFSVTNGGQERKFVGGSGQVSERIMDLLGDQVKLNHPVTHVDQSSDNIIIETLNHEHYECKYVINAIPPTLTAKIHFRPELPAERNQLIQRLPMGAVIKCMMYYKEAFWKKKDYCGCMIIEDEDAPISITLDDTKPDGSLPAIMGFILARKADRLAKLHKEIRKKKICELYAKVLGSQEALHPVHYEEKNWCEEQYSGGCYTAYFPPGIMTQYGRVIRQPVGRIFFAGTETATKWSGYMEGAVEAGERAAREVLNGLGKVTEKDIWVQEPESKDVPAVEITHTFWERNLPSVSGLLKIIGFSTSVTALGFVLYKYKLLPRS
Nature of the assay: MAO-A enzymatic activity, spectrophotometric assay (tyramine, Amplex Red). It is filed as biochemical. The settings on record: membranes of EBNA cells transfected with human MAO-A cDNA; 30 min preincubation at 37° C., pH 7.4; substrate tyramine. The method, then: as §1, §2, §3

SMILES strings stand for the structures. A value given as a limit tells only on which side of the number the result lay.

The text below walks through data of patent US7173023B2, “Bicyclic compounds” (Hoffmann-La Roche Inc., priority 2003, dated 2007).

As to `CC(=O)N1CCc2ccc(OCc3cccc(F)c3)cc2CC1` [Example 1, 1-[7-(3-Fluoro-benzyloxy)-1,2,4,5-tetrahydro-benzo[d]azepin-3-yl]-ethanone], the IC50 against human MAO-B was 0.082 µM; at human MAO-A it was above 10 µM.

`COCC(=O)N1CCc2ccc(OCc3cccc(F)c3)cc2CC1` [Example 2, 1-[7-(3-Fluoro-benzyloxy)-1,2,4,5-tetrahydro-benzo[d]azepin-3-yl]-2-methoxy-ethanone]: the IC50 on human MAO-B stood at 0.073 µM; against human MAO-A it was 5.5 µM.

Turning to `NC(=O)C(=O)N1CCc2ccc(OCc3cccc(F)c3)cc2CC1` [Example 3, 2-[7-(3-Fluoro-benzyloxy)-1,2,4,5-tetrahydro-benzo[d]azepin-3-yl]-2-oxo-acetamide], the IC50 against human MAO-B was 0.024 µM; against human MAO-A it was above 10 µM.

For the compound `COC(=O)N1CCc2ccc(OCc3cccc(F)c3)cc2CC1` [Example 5, 7-(3-Fluoro-benzyloxy)-1,2,4,5-tetrahydro-benzo[d]azepine-3-carboxylic Acid Methyl Ester], the IC50 at human MAO-B was determined as 0.068 µM; on human MAO-A it was 4.5 µM.

Regarding `O=CN1CCc2ccc(OCc3cccc(F)c3)cc2CC1` [Example 6, 7-(3-Fluoro-benzyloxy)-1,2,4,5-tetrahydro-benzo[d]azepine-3-carbaldehyde], the IC50 against human MAO-B came out at 0.007 µM; against human MAO-A, 4.1 µM.

Consider `NC(=O)N1CCc2ccc(OCc3cccc(F)c3)cc2CC1` [Example 8, 7-(3-Fluoro-benzyloxy)-1,2,4,5-tetrahydro-benzo[d]azepine-3-carboxylic Acid Amide], for which the figures for the half-inhibitory concentration (IC50) on human MAO-B and on human MAO-A were 0.021 µM and above 10 µM, respectively.

On to `CN1C=Cc2ccc(OCc3cccc(F)c3)cc2CC1=O` [Example 13, 8-(3-Fluoro-benzyloxy)-3-methyl-1,3-dihydro-benzo[d]azepin-2-one], for which the IC50 on human MAO-B was 0.15 µM; on human MAO-A it was 4.6 µM.

In the case of `CC(=O)N1C=Cc2ccc(OCc3cccc(F)c3)cc2CC1=O` [Example 15, 3-Acetyl-8-(3-fluoro-benzyloxy)-1,3-dihydro-benzo[d]azepin-2-one], the IC50 is 0.13 µM against human MAO-B and above 9.5 µM on human MAO-A.

One may read the IC50 as the point on the concentration scale where inhibition reaches its midpoint. High values mean lower potency, low ones higher potency.
